Data as given in US7618968B2, “Aryl triazines as LPAAT-β inhibitors and uses thereof” (Cell Therapeutics, Inc., priority 2001, dated 2009).

molecular target: T1, LPAAT-β (Homo sapiens, UniProt O15120); test: LPAAT-β cell-free assay (colorimetric primary screen, radiometric/fluorescent TLC secondary assay); type: biochemical; conditions: Sf9 cell membrane overexpressing LPAAT-β
T1 construct: the full-length human LPAAT-β cDNA was amplified by PCR; poly-histidine tag (from pFastBac HTc vector) (N); made in house; host or cells: Sf9 insect cells (baculovirus); membrane fraction used
T1 sequence (O15120 24-278): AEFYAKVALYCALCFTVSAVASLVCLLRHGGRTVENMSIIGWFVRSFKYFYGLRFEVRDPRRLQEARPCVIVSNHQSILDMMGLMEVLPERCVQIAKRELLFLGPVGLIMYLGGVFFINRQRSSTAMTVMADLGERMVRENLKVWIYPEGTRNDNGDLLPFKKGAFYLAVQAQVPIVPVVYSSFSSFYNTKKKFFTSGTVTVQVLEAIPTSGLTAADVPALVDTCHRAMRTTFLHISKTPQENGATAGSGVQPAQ
Text: A. Production of Recombinant LPAAT-β for Assays
For the construction of Baculovirus expression vectors, the full-length human LPAAT-β cDNA was amplified by PCR from the DNA template pCE9.LPAAT-β (West et al., DNA Cell Biol. 16:691-701 (1997)) using the primers 5′-[…] […] […] […]-3′ (olpb1F; SEQ ID NO:1) and 5′-[…] […] […]-3′ (olpb1R; SEQ ID NO:2). The ˜870 bp fragment generated was reamplified by PCR using the primers 5′[…] […] […] […] ATC-3′ (olpb2F; SEQ ID NO:3) and 5′-[…] […] […]-3′ (olpb1R; SEQ ID NO:2). The ˜890 bp fragment generated was then cleaved with Sal I and Xba I for insertion into pFastBac™ HTc vector (Life Technologies, Gaithersberg, Md.) between the Sal I and Xba I sites for the generation of the plasmid pFB.LPAAT-β. This plasmid was then transformed into E. coli DH10Bac™ (Life Technologies, Gaithersberg, Md.) for the generation of recombinant Bacmid DNA for transfection in HighFive (Invitrogen, San Diego, Calif.) or SF9 insect cells for the production of recombinant Baculovirus stocks using the protocol described in the Bac-to-Bac® Baculovirus Expression System (Life Technologies, Gaithersberg, Md.), a eukaryotic expression system for generating recombinant baculovirus through site-specific transposition in E. coli. Viral stocks harvested from the transfected cells can then be used to infect fresh insect cells for the subsequence expression of LPAAT-β fusion protein with a poly-histidine tag and a myc-epitope near its N-terminus. The membrane fraction from these Sf9 cells would be the source of LPAAT enzyme.
B. Preparation of Cell Membranes from Sf9 Cells
For the preparation of membranes from Sf9 Cells, all steps are performed on ice or at 4° C. Sf9 cell pellets (˜10^8 cells) were thawed and resuspended in 1-2 ml of buffer A (20 mM Hepes, pH 7.5, 1 mM DTT, 1 mM EDTA, 20% w/v glycerol, 1 mM Benzamidine, 1 μg/ml soybean trypsin inhibitor (SBTI), 1 μg/ml pepstatin A) w/o DTT but with 1 mM Pefabloc. The cells were lysed by sonication using a Branson Sonifier at output=2, duty cycle=2, 10 pulses each at 10s. with the tip of small sonicator probe submerged but not touching the walls. DTT was then added to 1 mM from a 1 M stock. The samples were centrifuged at 1500 rpm for 5 min. The low speed supernatant was saved and centrifuged (TLA 100.3 rotor, polycarbonate tubes, 2 ml/tube or 1.5 ml/tube minimum) at 100000×g for 1 hr. The high speed pellet was resuspend in Buffer A with a probe sonicator (10 pulses @ output #2 and duty cycle 20%) as a source of LPAAT enzyme.
C. Assay of LPAAT-β Activity
LPAAT-β catalyzes the transfer of an acyl group from a donor such as acyl-CoA to LPA. The transfer of the acyl group from acyl-CoA to LPA leads to the release of free CoA, which can be reacted with the thiol reagent, 5,5′-dithiobis(2-nitrobenzoic acid) (DTNB). The reaction between DTNB and the free sulfhydryl group from CoA generates a yellow-colored product, 3-carboxylato-4-nitrothiophenolate (CNP), that absorbs at 413 nm. LPAAT-β derived from Sf9 cell membrane overexpressing LPAAT-β were resuspended in HEPES saline buffer (20 mM HEPES pH 7.5, 150 mM NaCl), 1 mg/ml BSA and 72 μl aliquots were distributed into 96-well microtiter plates. 8 μl of compound of interest at 200 μM dissolved in 100% DMSO was added into each well. 20 μl of 1 mM 18:1-CoA and 1 mM sn-1-18:1 lysoPA was then added to each well to initiate the reaction and allowed to run at room temperature for 25 min. 100 μl of 1 mM DTNB in 100% ethanol was then added to each well to quench the reaction and for color development. The absorbance at 405 nm, measured using a spectrophotometer plate reader, is proportional to the activity of LPAAT-β in the sample. This colorimetric assay was used for the high throughput screening of LPAAT inhibitors.

Row | SMILES | IC50
1 | CCOc1ccc(Cl)cc1-c1nc(N)nc(Nc2ccc(Cl)c(C(=O)NC)c2)n1 [Example 62, 5-[4-Amino-6-(5-chloro-2-ethoxyphenyl)-[1,3,5]triazin-2-ylamino]-2-chloro-N-methylbenzamide] | 1000 nM
2 | Nc1nc(Nc2ccc(Cl)cc2)nc(-c2cccc(Cl)c2)n1 [Example 16, N-(4-chlorophenyl)-6-(3-chlorophenyl)-[1,3,5]triazine-2,4-diamine] | 800 nM
3 | Cc1ccc(Br)c(-c2nc(N)nc(Nc3ccc(Cl)cc3)n2)c1 [Example 86, 6-(2-bromo-5-methyl-phenyl)-N-(4-chloro-phenyl)-[1,3,5]triazine-2,4-diamine] | 450 nM
4 | Cc1ccc(Cl)cc1-c1nc(N)nc(Nc2ccc(COC(=O)CN)cc2)n1 [Example 71, Amino-acetic acid 4-[4-amino-6-(5-chloro-2-methyl-phenyl)-[1,3,5]triazin-2ylamino]-benzyl ester] | 480 nM
5 | Cc1ccc(Cl)cc1-c1nc(C#N)nc(Nc2ccc(Br)cc2)n1 [Example 28] | 420 nM
6 | CCOc1ccc(Cl)cc1-c1nc(N)nc(Nc2ccc(C(O)CO)cc2)n1 (centres unmarked) [Example 69] | 2600 nM
7 | COc1ccc(Cl)cc1-c1nc(N)nc(Nc2ccc3c(c2)OCO3)n1 [Example 5, N-Benzo[1,3]dioxol-5-yl-6-(5-chloro-2-methoxyphenyl)-[1,3,5]triazine-2,4-diamine] | 280 nM
8 | CNc1nc(Nc2ccc(CO)cc2)nc(-c2cc(Cl)ccc2C)n1 [Example 74, {4-[4-(5-Chloro-2-methyl-phenyl)-6-methylamino-[1,3,5]-triazin-2-ylamino]-phenyl}-methanol] | 680 nM
9 | C=Cc1ccc(Nc2nc(N)nc(-c3cc(Cl)ccc3C)n2)cc1 [Example 67, 6-(5-Chloro-2-methyl-phenyl)-N-(4-vinyl-phenyl)-[1,3,5]triazine-2,4-diamine] | 710 nM
10 | CCOc1ccc(Cl)cc1-c1nc(N)nc(Nc2ccc3cn[nH]c3c2)n1 [Example 51, 6-(5-Chloro-2-ethoxy-phenyl)-N-(1H-indazol-6-yl)-[1,3,5]triazine-2,4-diamine] | 600 nM
11 | Nc1nc(Nc2ccc3c(c2)OCO3)nc(-c2cc(Cl)ccc2Cl)n1 [Example 82, N-Benzo[1.3]dioxol-5-yl-6-(2,5-dichloro-phenyl)-[1,3,5]triazine-2,4-diamine] | 300 nM
12 | CCc1ccc(Nc2nc(N)nc(-c3cc(Cl)ccc3C)n2)cc1 [Example 38, 6-(5-Chloro-2-methyl-phenyl)-N-(4-ethyl-phenyl)-[1,3,5]triazine-2,4-diamine] | 1000 nM
13 | CC(C)Oc1ccc(Cl)cc1-c1nc(N)nc(Nc2ccc(Cl)cc2)n1 [Example 52, 6-(5-Chloro-2-isopropoxy-phenyl)-N-(4-chloro-phenyl)-[1,3,5]triazine-2,4-diamine] | 620 nM
14 | NCc1nc(Nc2ccc(Br)cc2)nc(-c2cc(Cl)ccc2Cl)n1 [Example 27] | 2700 nM
15 | CNc1ccc(Cl)cc1-c1nc(N)nc(Nc2ccc(Cl)cc2)n1 [Example 44, 6-(5-Chloro-2-methylaminophenyl)-N-(4-chlorophenyl)-[1,3,5]triazine-2,4-diamine] | 1500 nM
16 | Nc1nc(Nc2cccc(Cl)c2)nc(-c2cc(Cl)ccc2Cl)n1 [Example 90, N-(3-chlorophenyl)-6-(2,5-dichlorophenyl)-[1,3,5]triazine-2,4-diamine] | 4800 nM
17 | COc1ccc(Cl)cc1-c1nc(N)nc(Nc2ccc(C)cc2)n1 [Example 79, 6-(5-Chloro-2-methoxy-phenyl)-N-p-tolyl-[1,3,5]triazine-2,4-diamine] | 230 nM
18 | COc1ccc(OC)c(-c2nc(N)nc(Nc3ccc(Cl)cc3)n2)c1 [Example 17, N-(4-chlorophenyl)-6-(2,5-dimethoxyphenyl)-[1,3,5]triazine-2,4-diamine] | 1000 nM
19 | Cc1ccc(Cl)cc1-c1nc(N)nc(Nc2ccc(CN(C)C)cc2)n1 [Example 58, 6-(5-Chloro-2-methyl-phenyl)-N-(4-dimethylaminomethyl-phenyl)-[1,3,5]triazine-2,4-diamine] | 1800 nM
20 | Nc1nc(Nc2ccc(Br)cc2)nc(-c2cc(Cl)ccc2C(F)(F)F)n1 [Example 40, N-(4-bromophenyl)-6-(5-chloro-2-trifluoromethylphenyl)-[1,3,5]triazine-2,4-diamine] | 2600 nM
21 | Cc1ccc(Cl)cc1-c1nc(N)nc(Nc2ccc(COC(=O)CCC(=O)O)cc2)n1 [Example 70] | 830 nM

The next compounds have a lower IC50 than those just listed; values first:

Row | IC50 | SMILES
22 | 160 nM | CNc1cc(Nc2nc(N)nc(-c3cc(Cl)ccc3C)n2)ccc1Cl [Example 34, N-(4-Chloro-3-methylamino-phenyl)-6-(5-chloro-2-methyl-phenyl)-[1,3,5]triazine-2,4-diamine]
23 | 140 nM | CN(C)c1ccc(Cl)cc1-c1nc(N)nc(Nc2ccc(Cl)cc2)n1 [Example 47, 6-(5-Chloro-2-dimethylaminophenyl)-N-(4-chlorophenyl)-[1,3,5]triazine-2,4-diamine]
24 | 140 nM | Nc1nc(Nc2ccc(Cl)cc2)nc(-c2cc(Cl)ccc2Br)n1 [Example 80, 6-(2-Bromo-5-chloro-phenyl)-N-(4-chloro-phenyl)-[1,3,5]triazine-2,4-diamine]
25 | 140 nM | COc1ccc(Cl)cc1-c1nc(N)nc(Nc2ccc(Cl)c(Cl)c2)n1 [Example 8, 6-(5-Chloro-2-methoxyphenyl)-N-(3,4-dichlorophenyl)-[1,3,5]triazine-2,4-diamine]
26 | 110 nM | Cc1ccc(Cl)cc1-c1nc(N)nc(Nc2ccc(C=O)cc2)n1 [Example 87, 4-[4-Amino-6-(5-chloro-2-methyl-phenyl)-[1,3,5]triazin-2-ylamino]-benzaldehyde]
27 | 100 nM | Nc1nc(Nc2ccc(Cl)cc2)nc(-c2cc(C(F)(F)F)ccc2Cl)n1 [Example 81, N-(4-Chloro-phenyl)-6-(2-chloro-5-trifluoromethyl-phenyl)-[1,3,5]triazine-2,4-diamine]
28 | 70 nM | Nc1nc(Nc2ccc(Br)cc2)nc(-c2cc(Cl)ccc2Cl)n1 [Example 12, N-2-(4-Bromophenyl)-6-(2,5-dichlorophenyl)-[1,3,5]triazine-2,4-diamine]
29 | 60 nM | Cc1ccc(Cl)cc1-c1nc(N)nc(Nc2ccc(Br)cc2)n1 [Example 11, N-2-(4-Bromophenyl)-6-(5-chloro-2-methylphenyl)-[1,3,5]triazine-2,4-diamine]
30 | 40 nM | Nc1nc(Nc2ccc(Cl)cc2)nc(-c2cc(Br)ccc2Cl)n1 [Example 45, 6-(5-Bromo-2-chloro-phenyl)-N-(4-chloro-phenyl)-[1,3,5]triazine-2,4-diamine]
31 | 13 nM | Cc1nc(Nc2ccc3cn[nH]c3c2)nc(-c2cc(Cl)ccc2C)n1 [Example 22, [4-(5-Chloro-2-methyl-phenyl)-6-methyl-[1,3,5]triazin-2-yl]-(1H-indazol-6-yl)-amine]
32 | 10 nM | Cc1ccc(Cl)cc1-c1nc(Cl)nc(Nc2ccc(Br)cc2)n1 [Example 20, (4-Bromo-phenyl)-[4-chloro-6-(5-chloro-2-methyl-phenyl)-[1,3,5]triazin-2-yl]-amine]
